Data on 20 compounds can be found in US12384770B2, “Heterocyclic compound” (Takeda Pharmaceutical Company Limited, priority 2019, dated 2025).

Structures are written as SMILES.

The first assay has as its target T1, HDAC6 enzyme (Homo sapiens, UniProt Q9UBN7).
T1 construct: HDAC6 enzyme prepared by transducing full length HDAC6 gene into Sf-9 insect cells; GST; purchased SignalChem; host or cells: Sf-9 insect cells
T1 sequence (Q9UBN7 1-1215): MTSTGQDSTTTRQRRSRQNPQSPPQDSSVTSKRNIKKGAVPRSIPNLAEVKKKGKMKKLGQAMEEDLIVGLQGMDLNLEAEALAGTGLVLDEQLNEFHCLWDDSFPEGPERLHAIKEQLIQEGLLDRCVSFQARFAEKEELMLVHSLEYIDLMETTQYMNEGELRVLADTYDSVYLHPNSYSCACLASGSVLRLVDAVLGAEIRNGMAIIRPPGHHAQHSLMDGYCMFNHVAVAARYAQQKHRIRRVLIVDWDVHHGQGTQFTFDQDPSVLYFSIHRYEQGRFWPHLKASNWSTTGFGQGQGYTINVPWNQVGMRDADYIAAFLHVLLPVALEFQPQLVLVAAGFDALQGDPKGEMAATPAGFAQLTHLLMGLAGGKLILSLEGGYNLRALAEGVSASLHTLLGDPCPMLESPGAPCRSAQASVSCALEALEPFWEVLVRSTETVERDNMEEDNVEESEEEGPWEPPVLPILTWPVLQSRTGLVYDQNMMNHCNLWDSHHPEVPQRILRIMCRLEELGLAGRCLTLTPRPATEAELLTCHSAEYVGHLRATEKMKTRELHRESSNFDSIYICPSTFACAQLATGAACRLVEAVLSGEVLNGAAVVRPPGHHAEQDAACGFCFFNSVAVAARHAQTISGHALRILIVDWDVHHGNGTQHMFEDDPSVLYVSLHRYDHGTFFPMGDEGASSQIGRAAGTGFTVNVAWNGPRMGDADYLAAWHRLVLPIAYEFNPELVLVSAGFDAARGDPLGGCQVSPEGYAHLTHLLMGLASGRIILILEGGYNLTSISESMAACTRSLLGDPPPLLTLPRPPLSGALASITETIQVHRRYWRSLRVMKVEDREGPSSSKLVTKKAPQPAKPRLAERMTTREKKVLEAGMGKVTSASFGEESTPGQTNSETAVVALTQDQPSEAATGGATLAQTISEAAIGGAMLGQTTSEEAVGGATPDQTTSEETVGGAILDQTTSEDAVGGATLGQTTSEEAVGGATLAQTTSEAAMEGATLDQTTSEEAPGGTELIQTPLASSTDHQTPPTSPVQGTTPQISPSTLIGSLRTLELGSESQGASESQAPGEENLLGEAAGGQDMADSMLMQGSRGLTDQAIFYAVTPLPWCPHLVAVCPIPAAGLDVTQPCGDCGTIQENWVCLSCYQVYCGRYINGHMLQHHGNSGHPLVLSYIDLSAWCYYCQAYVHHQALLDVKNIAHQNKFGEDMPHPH
As to the kind of experiment: HDAC6 enzyme inhibitory assay (HDAC-Glo I/II Assay kit). The settings on record: wells without enzyme = 100% inhibition. In kind it is biochemical. An outline of the steps: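 Full-length GST-purified HDAC6 from Sf-9 cells preincubated with compound 60 min at room temperature in Tris-HCl pH 7.5 buffer with MgCl2, KCl, NaCl, glutathione, Tween-20. Substrate-developer reaction 20 min, luminescence read; no-enzyme wells set as 100% inhibition.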
`O=C1c2cc(-c3nnc(C(F)F)o3)ccc2CN1[C@H](c1cnccn1)[C@@H](O)c1cccc(F)c1` (single isomer, unassigned) [Example 101, 6-[5-(difluoromethyl)-1,3,4-oxadiazol-2-yl]-2-[(1R*,2S*)-2-(3-fluorophenyl)-2-hydroxy-1-(pyrazin-2-yl)ethyl]-2,3-dihydro-1H-isoindol-1-one]: the “HDAC6 inhibitory rate (%) (10 μM)” value stood at 100%.
Same read-out and setting: the result for `O=C1c2cc(-c3nnc(C(F)F)o3)ccc2CN1[C@H](C1CCOCC1)[C@@H](O)c1cccc(Cl)c1` (single isomer, unassigned) [Example 71, 2-[(1R*,2S*)-2-(3-chlorophenyl)-2-hydroxy-1-(oxan-4-yl)ethyl]-6-[5-(difluoromethyl)-1,3,4-oxadiazol-2-yl]-2,3-dihydro-1H-isoindol-1-one] reads 101%.

The same assay, now with this note: wells without enzyme = 100% inhibition, read-out: HDAC6 inhibitory rate (%) (10 μM).
For `O=C1c2cc(-c3nnc(C(F)F)o3)ccc2CN1[C@H](c1ccccn1)[C@H](O)c1ccccn1` (racemic) [Example 135, 6-[5-(difluoromethyl)-1,3,4-oxadiazol-2-yl]-2-[(1RS,2SR)-2-hydroxy-1,2-di(pyridin-2-yl)ethyl]-2,3-dihydro-1H-isoindol-1-one], the inhibition at 10 µM was 99%.
On the same count and under the same terms, in the case of `O=C1c2cc(-c3nnc(C(F)F)o3)ccc2CN1[C@H](c1ccc(C(F)(F)F)nc1)[C@@H](O)c1ccccc1` (racemic) [Example 17, 6-[5-(difluoromethyl)-1,3,4-oxadiazol-2-yl]-2-{(1RS,2SR)-2-hydroxy-2-phenyl-1-[6-(trifluoromethyl)pyridin-3-yl]ethyl}-2,3-dihydro-1H-isoindol-1-one] it was 100%; in that of `O=C1c2cc(-c3nnc(C(F)F)o3)ccc2CN1[C@H](c1ccc(F)cc1)[C@@H](O)c1ccc(C(F)(F)F)nc1` (single isomer, unassigned) [Example 54, 6-[5-(difluoromethyl)-1,3,4-oxadiazol-2-yl]-2-{(1R*,2S*)-1-(4-fluorophenyl)-2-hydroxy-2-[6-(trifluoromethyl)pyridin-3-yl]ethyl}-2,3-dihydro-1H-isoindol-1-one], 100%; in that of `O=C1c2cc(-c3nnc(C(F)F)o3)ccc2CN1[C@H](c1ccccc1)[C@@H](O)c1cccc(F)c1` (racemic) [Example 23, 6-[5-(difluoromethyl)-1,3,4-oxadiazol-2-yl]-2-[(1RS,2SR)-2-(3-fluorophenyl)-2-hydroxy-1-phenylethyl]-2,3-dihydro-1H-isoindol-1-one], 100%.
Same read-out and setting: in the case of `O=C1c2cc(-c3nnc(C(F)F)o3)ccc2CN1[C@H](c1cnccn1)[C@@H](O)c1cccc(Cl)c1` (single isomer, unassigned) [Example 91, 2-[(1R*,2S*)-2-(3-chlorophenyl)-2-hydroxy-1-(pyrazin-2-yl)ethyl]-6-[5-(difluoromethyl)-1,3,4-oxadiazol-2-yl]-2,3-dihydro-1H-isoindol-1-one] it was 100%.
As to `O=C1c2cc(-c3nnc(C(F)F)o3)ccc2CN1[C@H](c1cnccn1)[C@@H](O)c1ccc(F)cc1` (single isomer, unassigned) [Example 98, 6-[5-(difluoromethyl)-1,3,4-oxadiazol-2-yl]-2-[(1R*,2S*)-2-(4-fluorophenyl)-2-hydroxy-1-(pyrazin-2-yl)ethyl]-2,3-dihydro-1H-isoindol-1-one], the inhibition at 10 µM was determined as 100%.
Still for that read-out and setting: in the case of `O=C1c2cc(-c3nnc(C(F)F)o3)ccc2CN1[C@H](C1CCOCC1)[C@@H](O)c1ccc(F)c(Cl)c1` (racemic) [Example 107, 2-[(1RS,2SR)-2-(3-chloro-4-fluorophenyl)-2-hydroxy-1-(oxan-4-yl)ethyl]-6-[5-(difluoromethyl)-1,3,4-oxadiazol-2-yl]-2,3-dihydro-1H-isoindol-1-one] it was 101%; in that of `O=C1c2cc(-c3nnc(C(F)F)o3)ccc2CN1[C@@H](c1ccccn1)[C@@H](O)c1cccc(F)c1` (racemic) [Example 145, 6-[5-(difluoromethyl)-1,3,4-oxadiazol-2-yl]-2-[(1SR,2SR)-2-(3-fluorophenyl)-2-hydroxy-1-(pyridin-2-yl)ethyl]-2,3-dihydro-1H-isoindol-1-one], 99%; in that of `O=C1c2cc(-c3nnc(C(F)F)o3)ccc2CN1[C@H](c1ccc(F)cc1)[C@@H](O)c1ccc(C(F)(F)F)nc1` (relative stereo) [Example 55, 6-[5-(difluoromethyl)-1,3,4-oxadiazol-2-yl]-2-{(1R*,2S)-1-(4-fluorophenyl)-2-hydroxy-2-[6-(trifluoromethyl)pyridin-3-yl]ethyl}-2,3-dihydro-1H-isoindol-1-one], 98%.
Still for that read-out and setting: in the case of `O=C1c2cc(-c3nnc(C(F)F)o3)ccc2CN1[C@H](C1CCOCC1)[C@@H](O)c1cccc(F)c1` [Example 64, 6-[5-(difluoromethyl)-1,3,4-oxadiazol-2-yl]-2-[(1R,2S)-2-(3-fluorophenyl)-2-hydroxy-1-(oxan-4-yl)ethyl]-2,3-dihydro-1H-isoindol-1-one] it was 100%; in that of `O=C1c2cc(-c3nnc(C(F)F)o3)ccc2CN1[C@H](C1CC1)[C@@H](O)c1ccc(C(F)(F)F)nc1` (single isomer, unassigned) [Example 77, 2-{(1R*,2S*)-1-cyclopropyl-2-hydroxy-2-[6-(trifluoromethyl)pyridin-3-yl]ethyl}-6-[5-(difluoromethyl)-1,3,4-oxadiazol-2-yl]-2,3-dihydro-1H-isoindol-1-one], 100%; in that of `O=C1c2cc(-c3nnc(C(F)F)o3)ccc2CN1[C@H](c1cccnn1)[C@@H](O)c1cccc(Cl)c1` (relative stereo) [Example 121, 2-[(1R*,2S)-2-(3-chlorophenyl)-2-hydroxy-1-(pyridazin-3-yl)ethyl]-6-[5-(difluoromethyl)-1,3,4-oxadiazol-2-yl]-2,3-dihydro-1H-isoindol-1-one], 101%.
The same measure, in the same setting: in the case of `O=C1c2cc(-c3nnc(C(F)F)o3)ccc2CN1[C@H](C1CC1)[C@@H](O)c1ccc(F)nc1` [Example 63, 2-[(1R,2S)-1-cyclopropyl-2-(6-fluoropyridin-3-yl)-2-hydroxyethyl]-6-[5-(difluoromethyl)-1,3,4-oxadiazol-2-yl]-2,3-dihydro-1H-isoindol-1-one] it was 100%; in that of `O=C1c2cc(-c3nnc(C(F)F)o3)ccc2CN1[C@@H](c1ccccn1)[C@H](O)c1ccccn1` [Example 2, 6-[5-(difluoromethyl)-1,3,4-oxadiazol-2-yl]-2-[(1S,2S)-2-hydroxy-1,2-di(pyridin-2-yl)ethyl]-2,3-dihydro-1H-isoindol-1-one], 100%.
With `O=C1c2cc(-c3nnc(C(F)F)o3)ccc2CN1[C@H](c1ccc(F)cc1)[C@@H](O)c1ccccc1F` (racemic) [Example 29, 6-[5-(difluoromethyl)-1,3,4-oxadiazol-2-yl]-2-[(1RS,2SR)-2-(2-fluorophenyl)-1-(4-fluorophenyl)-2-hydroxyethyl]-2,3-dihydro-1H-isoindol-1-one], the inhibition at 10 µM stood at 99%.
Still for that read-out and setting: in the case of `O=C1c2cc(-c3nnc(C(F)F)o3)ccc2CN1[C@H](c1ccc(F)cc1F)[C@@H](O)c1ccccn1` (racemic) [Example 31, 6-[5-(difluoromethyl)-1,3,4-oxadiazol-2-yl]-2-[(1RS,2RS)-1-(2,4-difluorophenyl)-2-hydroxy-2-(pyridin-2-yl)ethyl]-2,3-dihydro-1H-isoindol-1-one] it was 97%.
Same read-out and setting: in the case of `O=C1c2cc(-c3nnc(C(F)F)o3)ccc2CN1[C@H](C1CC1)[C@H](O)c1ccc(F)cn1` [Example 150, 2-[(1R,2S)-1-cyclopropyl-2-(5-fluoropyridin-2-yl)-2-hydroxyethyl]-6-[5-(difluoromethyl)-1,3,4-oxadiazol-2-yl]-2,3-dihydro-1H-isoindol-1-one] it was 99%; in that of `CCOc1ccc([C@H]([C@@H](O)c2ccc(F)c(F)c2)N2Cc3ccc(-c4nnc(C(F)F)o4)cc3C2=O)cn1` (racemic) [Example 53, 6-[5-(difluoromethyl)-1,3,4-oxadiazol-2-yl]-2-[(1RS,2SR)-2-(3,4-difluorophenyl)-1-(6-ethoxypyridin-3-yl)-2-hydroxyethyl]-2,3-dihydro-1H-isoindol-1-one], 100%.
